Measurements taken from US11912693B2, “Compounds for modulating S1P1 activity and methods of using the same” (TREVENA, INC., priority 2017, dated 2024).

Key:
[1] = target: T1, human sphingosine-1-phosphate receptor 1 (S1P1) (Homo sapiens (Human), UniProt P21453); experiment: Inhibition of cAMP production (HTRF cAMP HiRange), S1P1 CHO-K1 cells; format: cell-based; settings: for Emax: CHO-K1, efficacy (SPAN) normalized to fingolimod, read-out: hS1P1 cAMP SPAN; for hS1P1 cAMP pEC50: inhibition of cAMP production, S1P1 CHO-K1 cells
Procedure, shortened: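 CHO-K1 cells stably co-expressing human S1P1 (C-terminal Prolink tag) and EA-β-arrestin2 were grown in AssayComplete Media 6 at 37° C. and 5% CO2, plated, and incubated overnight. Agonist-driven inhibition of intracellular cAMP was read by TR-FRET with the HTRF cAMP HiRange kit on a PheraStar reader. Potency is pEC50, and efficacy (SPAN) is normalized to fingolimod.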
Target sequence in this assay (P21453 whole entry, looked up): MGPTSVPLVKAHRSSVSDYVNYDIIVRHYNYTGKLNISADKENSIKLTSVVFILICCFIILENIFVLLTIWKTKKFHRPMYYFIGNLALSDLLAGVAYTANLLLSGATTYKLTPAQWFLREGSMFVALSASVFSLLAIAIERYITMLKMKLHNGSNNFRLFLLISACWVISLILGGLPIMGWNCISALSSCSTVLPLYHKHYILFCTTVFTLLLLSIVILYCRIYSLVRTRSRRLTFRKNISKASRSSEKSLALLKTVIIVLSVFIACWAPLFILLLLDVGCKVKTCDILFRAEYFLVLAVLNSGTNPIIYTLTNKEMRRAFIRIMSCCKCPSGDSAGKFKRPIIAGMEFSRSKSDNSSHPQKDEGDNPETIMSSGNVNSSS

[2] = target: T1, human sphingosine-1-phosphate receptor 1 (S1P1); experiment: β-Arrestin2 recruitment assay (PathHunter), S1P1 CHO-K1 cells; format: cell-based; settings: for Emax: CHO-K1, efficacy (SPAN) normalized to fingolimod, read-out: hS1P1 B-arrestin2 SPAN; for hS1P1 B-arrestin2 pEC50: β-arrestin2 recruitment, S1P1 CHO-K1 cells
Procedure, shortened: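 Enzyme-fragment complementation read-out: agonist-driven β-arrestin2 binding to ProLink-tagged human S1P1 in stable CHO-K1 cells restores β-galactosidase, measured 1 h at room temperature after a 60 min 37° C. compound incubation. Potency as pEC50, efficacy relative to fingolimod (SPAN).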
Target sequence in this assay (P21453 whole entry, looked up): as above
Target sequence in this assay (P32121 whole entry partner, looked up): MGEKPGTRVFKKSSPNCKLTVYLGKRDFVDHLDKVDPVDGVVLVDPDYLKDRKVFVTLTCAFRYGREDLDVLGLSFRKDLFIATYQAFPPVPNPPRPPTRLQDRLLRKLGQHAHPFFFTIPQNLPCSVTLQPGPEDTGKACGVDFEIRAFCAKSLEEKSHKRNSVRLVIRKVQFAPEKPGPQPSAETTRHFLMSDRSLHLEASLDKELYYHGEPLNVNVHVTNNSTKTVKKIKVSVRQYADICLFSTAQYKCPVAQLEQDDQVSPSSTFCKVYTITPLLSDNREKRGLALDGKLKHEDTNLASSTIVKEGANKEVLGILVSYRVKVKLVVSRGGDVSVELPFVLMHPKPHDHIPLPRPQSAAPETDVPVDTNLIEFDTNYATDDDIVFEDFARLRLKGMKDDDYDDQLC

SMILES | Emax [1] [%] | hS1P1 cAMP pEC50 [1] | Emax [2] [%] | hS1P1 B-arrestin2 pEC50 [2]
O=C1CCOc2ccc(-c3nc(-c4cccnc4)no3)cc21 [Compound 102, 6-[3-(pyridin-3-yl)-1,2,4-oxadiazol-5-yl]-3,4-dihydro-2H-1-benzopyran-4-one] | < 75 | <6.5 | < 75 | <5
CCC1(CC)CC(=O)c2cc(-c3nnc(-c4cccnc4)s3)ccc2O1 [Compound 104, 2,2-diethyl-6-(5-(pyridin-3-yl)-1,3,4-thiadiazol-2-yl)chroman-4-one] | > 75 | >6.5 | > 75 | <5
CCC1(CC)CC(=O)c2cc(-c3nc(-c4ccc(O)nc4)no3)ccc2O1 [Compound 105, 2,2-diethyl-6-[3-(6-hydroxy-3-pyridyl)-1,2,4-oxadiazol-5-yl]chroman-4-one] | < 75 | <6.5 | < 75 | <5
CCC1(CC)CC(=O)c2cc(-c3nc(-c4ccccn4)no3)ccc2O1 [Compound 111, 2,2-diethyl-6-[3-(2-pyridyl)-1,2,4-oxadiazol-5-yl]chroman-4-one] | > 75 | <6.5 | > 75 | <5
c1ccc(-c2noc(-c3ccc4[nH]nnc4c3)n2)cc1 [Compound 113, 5-(3-phenyl-1,2,4-oxadiazol-5-yl)-1H-1,2,3-benzotriazole] | – | <6.5 | – | <5
FC(F)(F)c1cc(Br)ccc1-c1noc(-c2ccc3c(c2)nnn3C2CCCC2)n1 [Compound 114, 5-{3-[4-bromo-2-(trifluoromethyl)phenyl]-1,2,4-oxadiazol-5-yl}-1-cyclopentyl-1H-1,2,3-benzotriazole] | < 75 | <6.5 | < 75 | <5
Brc1ccccc1-c1nc(-c2ccc3c(c2)nnn3C2CCCCC2)no1 [Compound 115, 5-(2-bromophenyl)-3-(1-cyclohexyl-1H-benzo[d][1,2,3]triazol-5-yl)-1,2,4-oxadiazole] | > 75 | >6.5 | > 75 | >5
Cc1ccc(-c2noc(-c3ccc4c(c3)nnn4C3CCCCC3)n2)cc1 [Compound 117, 1-cyclohexyl-5-[3-(4-methylphenyl)-1,2,4-oxadiazol-5-yl]-1H-1,2,3-benzotriazole] | < 75 | <6.5 | < 75 | <5
FC(F)(F)c1cccc(-c2noc(-c3ccc4c(c3)nnn4C3CCCC3)n2)c1 [Compound 118, 1-cyclopentyl-5-{3-[3-(trifluoromethyl)phenyl]-1,2,4-oxadiazol-5-yl}-1H-1,2,3-benzotriazole] | – | <6.5 | – | <5
COc1ccccc1-c1nc(-c2ccc3c(c2)nnn3C2CCCC2)no1 [Compound 120, 3-(1-cyclopentyl-1H-benzo[d][1,2,3]triazol-5-yl)-5-(2-methoxyphenyl)-1,2,4-oxadiazole] | > 75 | >6.5 | > 75 | >5
CC(C)CCn1nnc2cc(-c3nc(-c4ccc(C(F)(F)F)c(F)c4)no3)ccc21 [Compound 122, 5-{3-[3-fluoro-4-(trifluoromethyl)phenyl]-1,2,4-oxadiazol-5-yl}-1-(3-methylbutyl)-1H-1,2,3-benzotriazole] | < 75 | <6.5 | < 75 | <5
COc1cccc(-c2noc(-c3ccc4c(c3)nnn4C3CCCC3)n2)n1 [Compound 124, 1-cyclopentyl-5-[3-(6-methoxypyridin-2-yl)-1,2,4-oxadiazol-5-yl]-1H-1,2,3-benzotriazole] | < 75 | <6.5 | < 75 | <5
CC(C)n1nnc2cc(-c3noc(C4CCC(F)(F)CC4)n3)ccc21 [Compound 125, 5-[5-(4,4-difluorocyclohexyl)-1,2,4-oxadiazol-3-yl]-1-(propan-2-yl)-1H-1,2,3-benzotriazole] | < 75 | <6.5 | < 75 | <5

Other lines, results leading:

Emax [1] [%] | hS1P1 cAMP pEC50 [1] | Emax [2] [%] | hS1P1 B-arrestin2 pEC50 [2] | SMILES
> 75 | >6.5 | > 75 | >5 | Cc1ccncc1-c1noc(-c2ccc3c(c2)nnn3C(C)C)n1 [Compound 101, 5-[3-(4-methylpyridin-3-yl)-1,2,4-oxadiazol-5-yl]-1-(propan-2-yl)-1H-1,2,3-benzotriazole]
< 75 | >6.5 | < 75 | <5 | COc1cccc(-c2cnc(-c3ccc4c(c3)nnn4C(C)C)s2)c1 [Compound 108, 2-(1-isopropyl-1H-benzo[d][1,2,3]triazol-5-yl)-5-(3-methoxyphenyl)thiazole]
< 75 | <6.5 | < 75 | >5 | COc1ccc(-c2cnc(-c3ccc4c(c3)nnn4C(C)C)s2)cc1 [Compound 109, 2-(1-isopropyl-1H-benzo[d][1,2,3]triazol-5-yl)-5-(4-methoxyphenyl)thiazole]
< 75 | <6.5 | < 75 | <5 | CC(C)n1nnc2cc(-c3ncc(-c4cccc(F)c4)s3)ccc21 [Compound 110, 5-(3-fluorophenyl)-2-(1-isopropyl-1H-benzo[d][1,2,3]triazol-5-yl)thiazole]
– | >6.5 | – | >5 | CC(C)n1nnc2cc(-c3nsc(-c4ccccc4O)n3)ccc21 [Compound 112, 2-{3-[1-(propan-2-yl)-1H-1,2,3-benzotriazol-5-yl]-1,2,4-thiadiazol-5-yl}phenol]
< 75 | <6.5 | < 75 | <5 | COc1cc(-c2nc(-c3ccc4c(c3)nnn4C(C)C)no2)ccn1 [Compound 116, 3-(1-isopropyl-1H-benzo[d][1,2,3]triazol-5-yl)-5-(2-methoxypyridin-4-yl)-1,2,4-oxadiazole]
< 75 | <6.5 | < 75 | <5 | Cc1ccc(-c2nc(-c3ccc4c(c3)nnn4C(C)C)no2)cn1 [Compound 119, 3-(1-isopropyl-1H-benzo[d][1,2,3]triazol-5-yl)-5-(6-methylpyridin-3-yl)-1,2,4-oxadiazole]
< 75 | <6.5 | < 75 | <5 | CC(C)Oc1ccc(-c2nc(-c3ccc4c(c3)nnn4C3CCCC3)no2)cc1 [Compound 121, 3-(1-cyclopentyl-1H-benzo[d][1,2,3]triazol-5-yl)-5-(4-isopropoxyphenyl)-1,2,4-oxadiazole]
< 75 | <6.5 | < 75 | <5 | Cc1cc(C)cc(Cc2noc(-c3ccc4c(c3)nnn4C(C)C)n2)c1 [Compound 126, 5-{3-[(3,5-dimethylphenyl)methyl]-1,2,4-oxadiazol-5-yl}-1-(propan-2-yl)-1H-1,2,3-benzotriazole]
< 75 | <6.5 | < 75 | <5 | CC(C)n1nnc2cc(-c3noc(C4CCCCC4)n3)ccc21 [Compound 127, 5-(5-cyclohexyl-1,2,4-oxadiazol-3-yl)-1-(propan-2-yl)-1H-1,2,3-benzotriazole]
< 75 | <6.5 | < 75 | <5 | CC(C)n1nnc2cc(-c3nc(-c4ccc5nncn5c4)no3)ccc21 [Compound 128, 1-(propan-2-yl)-5-(3-{[1,2,4]triazolo[4,3-a]pyridin-6-yl}-1,2,4-oxadiazol-5-yl)-1H-1,2,3-benzotriazole]
< 75 | <6.5 | < 75 | <5 | COc1ccc(-c2noc(-c3ccc4c(c3)nnn4C(C)C)n2)c2ccccc12 [Compound 129, 5-[3-(4-methoxynaphthalen-1-yl)-1,2,4-oxadiazol-5-yl]-1-(propan-2-yl)-1H-1,2,3-benzotriazole]
< 75 | <6.5 | < 75 | <5 | COc1cccc(-c2nc(-c3ccc4c(c3)nnn4C3CCCC3)no2)c1 [Compound 130, 3-(1-cyclopentyl-1H-benzo[d][1,2,3]triazol-5-yl)-5-(3-methoxyphenyl)-1,2,4-oxadiazole]
< 75 | <6.5 | < 75 | <5 | CC(C)n1nnc2cc(-c3noc(-c4ccc(COc5ccccc5)cc4)n3)ccc21 [Compound 131, 3-(1-isopropyl-1H-benzo[d][1,2,3]triazol-5-yl)-5-(4-(phenoxymethyl)phenyl)-1,2,4-oxadiazole]
> 75 | >6.5 | > 75 | >5 | CC(C)n1nnc2cc(-c3nc(-c4ccccc4OC(F)(F)F)no3)ccc21 [Compound 132, 5-(1-isopropyl-1H-benzo[d][1,2,3]triazol-5-yl)-3-(2-(trifluoromethoxy)phenyl)-1,2,4-oxadiazole]
